Source: paper PMC6389425 (Journal of molecular biology, 2019)
Positions count from the first letter of the chain named.

Key:
Rg3GUS = biological target: T1, Rg3GUS (Mediterraneibacter gnavus, UniProt Z9EEQ2OTY4); test: fluorescence of 4-methylumbelliferone release, initial rates; assay type: biochemical; details: pH 6.5 HEPES or pH 5.5 acetate; FMN added (5 μL of 25 μM in 50 μL)
T1 sequence (Z9EEQ2OTY4 24-777): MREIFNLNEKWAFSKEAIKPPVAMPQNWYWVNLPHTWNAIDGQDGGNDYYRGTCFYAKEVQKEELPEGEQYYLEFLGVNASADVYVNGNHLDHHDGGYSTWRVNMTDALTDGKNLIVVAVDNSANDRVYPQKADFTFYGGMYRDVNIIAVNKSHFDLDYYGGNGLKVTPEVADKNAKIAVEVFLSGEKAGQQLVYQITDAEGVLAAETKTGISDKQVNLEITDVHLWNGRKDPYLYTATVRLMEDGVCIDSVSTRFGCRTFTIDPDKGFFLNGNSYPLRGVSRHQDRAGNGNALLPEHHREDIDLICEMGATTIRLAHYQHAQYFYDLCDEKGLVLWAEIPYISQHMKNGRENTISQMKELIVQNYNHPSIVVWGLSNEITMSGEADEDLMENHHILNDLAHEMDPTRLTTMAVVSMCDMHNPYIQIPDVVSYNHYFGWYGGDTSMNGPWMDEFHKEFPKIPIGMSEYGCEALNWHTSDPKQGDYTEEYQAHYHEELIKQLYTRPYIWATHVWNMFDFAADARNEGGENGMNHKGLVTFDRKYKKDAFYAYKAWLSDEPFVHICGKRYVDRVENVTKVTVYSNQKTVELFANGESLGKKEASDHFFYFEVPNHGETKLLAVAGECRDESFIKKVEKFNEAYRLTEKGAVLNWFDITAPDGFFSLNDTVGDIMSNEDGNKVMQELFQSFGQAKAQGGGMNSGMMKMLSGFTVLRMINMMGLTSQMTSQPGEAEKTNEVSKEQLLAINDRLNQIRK

RiGUS = biological target: T2, RiGUS (Roseburia inulinivorans, UniProt Z9MQZ9NYJ7); test: as above; assay type: biochemical; details: pH 6.5 HEPES or pH 5.5 acetate; FMN added (5 μL of 25 μM in 50 μL)
T2 sequence (Z9MQZ9NYJ7 1-736): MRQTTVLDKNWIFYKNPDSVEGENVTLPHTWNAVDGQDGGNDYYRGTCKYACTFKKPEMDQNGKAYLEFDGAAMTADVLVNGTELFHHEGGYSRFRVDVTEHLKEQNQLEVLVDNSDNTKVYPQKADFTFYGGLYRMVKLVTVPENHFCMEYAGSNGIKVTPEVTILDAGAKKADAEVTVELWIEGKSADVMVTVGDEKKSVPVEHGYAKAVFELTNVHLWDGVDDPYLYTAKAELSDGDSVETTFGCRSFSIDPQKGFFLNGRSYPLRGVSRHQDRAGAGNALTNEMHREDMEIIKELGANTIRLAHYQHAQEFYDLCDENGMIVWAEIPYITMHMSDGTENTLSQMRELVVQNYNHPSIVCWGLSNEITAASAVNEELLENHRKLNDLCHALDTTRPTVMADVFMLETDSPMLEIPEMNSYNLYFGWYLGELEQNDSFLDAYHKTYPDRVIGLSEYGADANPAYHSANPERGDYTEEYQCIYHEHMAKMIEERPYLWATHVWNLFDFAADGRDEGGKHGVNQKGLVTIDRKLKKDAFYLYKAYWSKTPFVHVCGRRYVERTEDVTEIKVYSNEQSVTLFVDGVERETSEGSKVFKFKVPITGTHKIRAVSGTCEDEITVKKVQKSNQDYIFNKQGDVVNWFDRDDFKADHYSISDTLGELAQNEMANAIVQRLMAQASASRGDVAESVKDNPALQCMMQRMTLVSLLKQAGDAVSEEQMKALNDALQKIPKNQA

Fp2GUS [1] = biological target: T3, Fp2GUS (Faecalibacterium prausnitzii, UniProt D4K3H3); test: as above; assay type: biochemical; details: pH 6.5 HEPES or pH 5.5 acetate; FMN added (5 μL of 25 μM in 50 μL)
T3 sequence (D4K3H3 1-746): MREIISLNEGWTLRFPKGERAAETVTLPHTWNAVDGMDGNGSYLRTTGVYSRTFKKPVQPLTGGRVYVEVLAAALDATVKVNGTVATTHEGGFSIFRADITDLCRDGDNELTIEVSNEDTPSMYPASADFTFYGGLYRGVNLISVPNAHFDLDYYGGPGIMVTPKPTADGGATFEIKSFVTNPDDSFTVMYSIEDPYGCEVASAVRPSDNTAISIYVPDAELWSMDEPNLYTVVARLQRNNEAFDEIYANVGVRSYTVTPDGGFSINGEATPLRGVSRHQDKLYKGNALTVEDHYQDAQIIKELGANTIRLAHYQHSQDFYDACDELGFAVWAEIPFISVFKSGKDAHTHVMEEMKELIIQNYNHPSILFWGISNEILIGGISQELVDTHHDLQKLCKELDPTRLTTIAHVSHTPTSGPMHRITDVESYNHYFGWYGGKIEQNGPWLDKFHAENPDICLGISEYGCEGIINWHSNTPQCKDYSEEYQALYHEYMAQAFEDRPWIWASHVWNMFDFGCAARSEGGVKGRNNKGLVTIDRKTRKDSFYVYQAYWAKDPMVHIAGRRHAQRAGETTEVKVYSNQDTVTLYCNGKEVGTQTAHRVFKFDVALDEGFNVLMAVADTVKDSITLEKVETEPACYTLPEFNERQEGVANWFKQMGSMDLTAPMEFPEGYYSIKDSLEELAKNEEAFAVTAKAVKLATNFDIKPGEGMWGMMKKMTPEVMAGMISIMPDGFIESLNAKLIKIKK

Rh2GUS [2] = biological target: T4, Rh2GUS (Roseburia hominis, UniProt Z9OYF2D7T4, Y182A); test: as above; assay type: biochemical; details: pH 6.5 HEPES or pH 5.5 acetate; no FMN added
T4 sequence (Z9OYF2D7T4 24-780 Y182A): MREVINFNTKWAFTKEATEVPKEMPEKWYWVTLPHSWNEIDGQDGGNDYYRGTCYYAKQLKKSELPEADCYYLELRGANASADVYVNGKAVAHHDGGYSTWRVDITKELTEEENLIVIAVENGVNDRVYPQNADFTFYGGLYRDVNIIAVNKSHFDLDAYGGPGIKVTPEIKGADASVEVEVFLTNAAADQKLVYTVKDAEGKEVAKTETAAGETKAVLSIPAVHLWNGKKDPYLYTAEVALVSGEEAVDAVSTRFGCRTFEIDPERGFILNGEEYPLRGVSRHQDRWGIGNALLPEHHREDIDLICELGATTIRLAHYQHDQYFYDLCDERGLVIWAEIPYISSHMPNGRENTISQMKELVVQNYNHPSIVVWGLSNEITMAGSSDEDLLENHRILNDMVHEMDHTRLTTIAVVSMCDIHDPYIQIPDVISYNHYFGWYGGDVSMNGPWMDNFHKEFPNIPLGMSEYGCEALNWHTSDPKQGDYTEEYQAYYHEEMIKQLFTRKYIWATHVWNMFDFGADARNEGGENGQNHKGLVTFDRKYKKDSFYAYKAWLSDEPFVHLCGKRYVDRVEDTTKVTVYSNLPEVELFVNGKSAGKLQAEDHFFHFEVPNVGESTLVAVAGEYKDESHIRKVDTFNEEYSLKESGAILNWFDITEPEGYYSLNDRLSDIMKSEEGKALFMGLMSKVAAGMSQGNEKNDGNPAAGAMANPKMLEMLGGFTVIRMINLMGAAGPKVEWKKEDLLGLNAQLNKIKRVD

Rh2GUS [3] = biological target: T5, Rh2GUS (Roseburia hominis, UniProt Z9OYF2D7T4); test: as above; assay type: biochemical; details: pH 6.5 HEPES or pH 5.5 acetate; FMN added (5 μL of 25 μM in 50 μL)
T5 sequence (Z9OYF2D7T4 24-780): T4 sequence (Z9OYF2D7T4 24-780 Y182A) with A159Y

Fp2GUS [4] = biological target: T3, Fp2GUS; test: isothermal titration calorimetry; assay type: binding
BvGUS = test: isothermal titration calorimetry; assay type: binding, Butyrivibrio fibrisolvens; details: 25 °C; 20 mM HEPES, 50 mM NaCl, pH 7.4

Row | Kd (Fp2GUS [4]) [µM] | Kd (BvGUS) [µM] | Structure (SMILES) | KM (Rg3GUS) | KM (RiGUS) | KM (Fp2GUS [1]) | KM (Rh2GUS [2]) | KM (Rh2GUS [3])
1 |  |  | Cc1cc(=O)oc2cc(O[C@@H]3O[C@H](C(=O)O)[C@@H](O)[C@H](O)[C@H]3O)ccc12 [4-MUG] | Each GUS was able to hydrolyze the fluorescent reporter substrate 4-methylumbelliferyl glucuronide (4-MUG) | Each GUS was able to hydrolyze the fluorescent reporter substrate 4-methylumbelliferyl glucuronide (4-MUG) | Each GUS was able to hydrolyze the fluorescent reporter substrate 4-methylumbelliferyl glucuronide (4-MUG) | FMN-binding mutants of Rh2GUS, Rg3GUS, and BvGUS all display significantly higher KM values than WT | Each GUS was able to hydrolyze the fluorescent reporter substrate 4-methylumbelliferyl glucuronide (4-MUG)
2 | 1.05 ± 0.06 | 1.27 | Cc1cc2nc3c(=O)[nH]c(=O)nc-3n(C[C@H](O)[C@H](O)[C@H](O)COP(=O)(O)O)c2cc1C [FMN] |  |  |  |  | 
